We go through 17 molecules from US10793568B2, “Hormone receptor modulators for treating metabolic conditions and disorders” (ARDELYX, INC., priority 2016, dated 2020).

Assay [1] has as its target ligand binding domain of human FXR (Homo sapiens (Human), UniProt Q96RI1). Kind of assay: FXR ligand binding assay (LanthaScreen TR-FRET, SRC2-2 peptide recruitment). The note with it: for pEC50: -log EC50, concentration required to produce 50% activation; for Emax: read-out: % Efficacy.
Assay [2] concerns the target human Farnesoid X receptor ligand-binding domain/Gal4 DNA binding domain chimera (Homo sapiens (Human), UniProt Q96RI1). Kind of assay: Cell-based assay of FXR activation (FXR-UAS-bla HEK 293T beta-lactamase reporter). The note with it: cellular FXR beta-lactamase reporter assay; for Emax: HEK-293T, extent of activation relative to GW4064, read-out: % Efficacy; for EC50: FXR-UAS-bla HEK 293T cells, 16 h, pEC50 = -log EC50. Put shortly: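 HEK 293T cells stably expressing a Gal4-fused human FXR LBD and a UAS-driven beta-lactamase reporter were incubated with serially diluted compounds for 16 h at 37 °C in phenol red-free DMEM with 2% charcoal-stripped FBS. CCF4 FRET read-out: excitation 409 nm, emission 447 nm. pEC50 comes from a 3-parameter logistic fit, and efficacy is given as % of GW4064.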
For orientation: In a reporter assay the amount or activity of a reporter protein is the signal.

Where [3] appears, read: extent of activation relative to GW4064.

Molecules are shown by their SMILES. Like-named read-outs stand apart in the source and are kept apart here.

ligand binding domain of human FXR, sequence (Q96RI1 262-486): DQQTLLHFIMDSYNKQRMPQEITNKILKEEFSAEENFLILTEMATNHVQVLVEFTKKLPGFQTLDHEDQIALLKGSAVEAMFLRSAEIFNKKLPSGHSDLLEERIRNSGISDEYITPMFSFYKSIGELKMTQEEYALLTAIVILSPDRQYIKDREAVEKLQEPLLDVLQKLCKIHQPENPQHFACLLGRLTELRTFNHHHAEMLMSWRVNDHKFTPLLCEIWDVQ
human Farnesoid X receptor ligand-binding domain/Gal4 DNA binding domain chimera, sequence (Q96RI1 262-486, change not shown): as the sequence (Q96RI1 262-486) above
human Farnesoid X receptor ligand-binding domain/Gal4 DNA binding domain chimera, sequence (P04386 1-147 partner): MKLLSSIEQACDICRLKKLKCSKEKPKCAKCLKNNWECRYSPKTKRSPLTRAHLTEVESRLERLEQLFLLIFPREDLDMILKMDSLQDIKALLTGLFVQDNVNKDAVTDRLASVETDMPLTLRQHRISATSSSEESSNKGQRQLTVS

What is called pEC50 is the negative decadic logarithm of the EC50, by convention in mol/L. The EC50 is the concentration needed to bring the measured effect to its halfway point. For the molecule `Cc1cccc(Cl)c1-c1noc(C2CC2)c1CO[C@@H]1C[C@@H]2C[C@H]1CN2c1ccc(CCC(=O)O)cc1F` [Compound I-159, 3-{4-[(1S,4S,5R)-5-{[3-(2-chloro-6-methylphenyl)-5-cyclopropyl-1,2-oxazol-4-yl]methoxy}-2-azabicyclo[2.2.1]heptan-2-yl]-3-fluorophenyl}propanoic Acid], the pEC50 in assay [1] turned out to be 8.2. Moreover, in assay [1] (setting [3]), the Emax came out at 144%. In addition, in assay [2], the Emax stood at 100% and the EC50 is 1.58 nM.

In the case of `O=C(O)C1CN(Cc2ccc(N3C[C@@H]4C[C@H]3C[C@H]4OCc3c(-c4c(Cl)cccc4Cl)noc3C3CC3)cc2)C1` [Compound I-160, 1-({4-[(1S,4S,5R)-5-{[5-cyclopropyl-3-(2,6-dichlorophenyl)-1,2-oxazol-4-yl]methoxy}-2-azabicyclo[2.2.1]heptan-2-yl]phenyl}methyl)azetidine-3-carboxylic Acid], in assay [1], the pEC50 is 6.9. For the same molecule, the Emax in assay [1] (setting [3]) came to 93%. For the same molecule, in assay [2], the Emax turned out to be 110% and a half-maximal response (EC50) required 1000 nM.

As to `O=CN(O)Cc1ccc(N2C[C@@H]3C[C@H]2C[C@H]3OCc2c(-c3c(Cl)cccc3Cl)noc2C2CC2)cc1` [Compound I-161, N-({4-[(1S,4S,5R)-5-{[5-cyclopropyl-3-(2,6-dichlorophenyl)-1,2-oxazol-4-yl]methoxy}-2-azabicyclo[2.2.1]heptan-2-yl]phenyl}methyl)-N-hydroxyformamide], in assay [1], the pEC50 came to 6.9. In assay [1] (setting [3]), the Emax was 134%. In assay [2], the Emax is 102% and the EC50 was 12.6 nM.

In assay [1], `Fc1cc(CCc2nn[nH]n2)ccc1N1C[C@@H]2C[C@H]1C[C@H]2OCc1c(-c2c(Cl)cccc2Cl)noc1C1CC1` [Compound I-162, (1S,4S,5R)-5-{[5-cyclopropyl-3-(2,6-dichlorophenyl)-1,2-oxazol-4-yl]methoxy}-2-{2-fluoro-4-[2-(2H-1,2,3,4-tetrazol-5-yl)ethyl]phenyl}-2-azabicyclo[2.2.1]heptane] showed a pEC50 of 8.1. For the same molecule, the figures for the Emax in assay [1] (setting [3]) and in assay [2] were 140% and 105%, respectively. In assay [2], the EC50 is 6.31 nM.

For `O=C(CCc1ccc(N2C[C@@H]3C[C@H]2C[C@H]3OCc2c(-c3c(Cl)cccc3Cl)noc2C2CC2)c(F)c1)OCCN(CCO)CCO` [Compound I-163, 2-[bis(2-hydroxyethyl)amino]ethyl 3-{4-[(1S,4S,5R)-5-{[5-cyclopropyl-3-(2,6-dichlorophenyl)-1,2-oxazol-4-yl]methoxy}-2-azabicyclo[2.2.1]heptan-2-yl]-3-fluorophenyl}propanoate], the pEC50 in assay [1] amounted to 7.5. The Emax in assay [1] (setting [3]) turned out to be 154%. In assay [2], the Emax came out at 99% and the 50% effective concentration (EC50) is 1.26 nM.

`O=C(NCc1nn[nH]n1)c1ccc(N2C[C@@H]3C[C@H]2C[C@H]3OCc2c(-c3c(Cl)cccc3Cl)noc2C2CC2)cc1` [Compound I-164, 4-[(1S,4S,5R)-5-{[5-cyclopropyl-3-(2,6-dichlorophenyl)-1,2-oxazol-4-yl]methoxy}-2-azabicyclo[2.2.1]heptan-2-yl]-N-(2H-1,2,3,4-tetrazol-5-ylmethyl)benzamide] registered a pEC50 in assay [1] of 9.7. Moreover, the Emax in assay [1] (setting [3]) turned out to be 148%. In assay [2], the Emax amounted to 118% and the EC50 is 79.4 nM.

With `O=C(O)CNC(=O)c1ccc(N2C[C@@H]3C[C@H]2C[C@H]3OCc2c(-c3c(Cl)cccc3Cl)noc2C2CC2)cc1` [Compound I-165, 2-({4-[(1S,4S,5R)-5-{[5-cyclopropyl-3-(2,6-dichlorophenyl)-1,2-oxazol-4-yl]methoxy}-2-azabicyclo[2.2.1]heptan-2-yl]phenyl}formamido)acetic Acid], the pEC50 in assay [1] is on record as 8.4. Also, the Emax in assay [1] (setting [3]) was 140%. In assay [2], the Emax came to 107% and the concentration giving a half-maximal response (EC50) was 20 nM.

In turn, `O=C(NCCS(=O)(=O)O)c1ccc(N2C[C@@H]3C[C@H]2C[C@H]3OCc2c(-c3c(Cl)cccc3Cl)noc2C2CC2)cc1` [Compound I-166, 2-({4-[(1S,4S,5R)-5-{[5-cyclopropyl-3-(2,6-dichlorophenyl)-1,2-oxazol-4-yl]methoxy}-2-azabicyclo[2.2.1]heptan-2-yl]phenyl}formamido)ethane-1-sulfonic Acid] yielded a pEC50 in assay [1] of 8.7. In assay [1] (setting [3]), the Emax was found to be 154%. Moreover, in assay [2], the Emax was determined as 114% and the concentration for a half-maximal effect (EC50) was 50.1 nM.

Molecule `O=C(O)CNC(=O)c1ccc(N2C[C@@H]3C[C@H]2C[C@H]3OCc2c(-c3c(Cl)cccc3Cl)noc2C2CC2)cc1F` [Compound I-167, 2-({4-[(1S,4S,5R)-5-{[5-cyclopropyl-3-(2,6-dichlorophenyl)-1,2-oxazol-4-yl]methoxy}-2-azabicyclo[2.2.1]heptan-2-yl]-2-fluorophenyl}formamido)acetic Acid] had a pEC50 in assay [1] of 8.7. Also, in assay [1] (setting [3]), the Emax stood at 152%. In assay [2], the Emax came to 106% and the EC50 was 7.94 nM.

Molecule `O=C(NCCS(=O)(=O)O)c1ccc(N2C[C@@H]3C[C@H]2C[C@H]3OCc2c(-c3c(Cl)cccc3Cl)noc2C2CC2)cc1F` [Compound I-168, 2-({4-[(1S,4S,5R)-5-{[5-cyclopropyl-3-(2,6-dichlorophenyl)-1,2-oxazol-4-yl]methoxy}-2-azabicyclo[2.2.1]heptan-2-yl]-2-fluorophenyl}formamido)ethane-1-sulfonic Acid] registered a pEC50 in assay [1] of 8.6. For the same molecule, the Emax in assay [1] (setting [3]) is 164%. In assay [2], the Emax came to 107% and it took 100 nM to reach a half-maximal effect (EC50).

In assay [1], `CS(=O)(=O)CCNC(=O)c1ccc(N2C[C@@H]3C[C@H]2C[C@H]3OCc2c(-c3c(Cl)cccc3Cl)noc2C2CC2)cc1` [Compound I-169, 4-[(1S,4S,5R)-5-{[5-cyclopropyl-3-(2,6-dichlorophenyl)-1,2-oxazol-4-yl]methoxy}-2-azabicyclo[2.2.1]heptan-2-yl]-N-(2-methanesulfonylethyl)benzamide] came in with a pEC50 of 8.4. Moreover, in assay [1] (setting [3]), the Emax was 160%. In addition, in assay [2], the Emax was 106% and a half-maximal effect (EC50) was put at 1.58 nM.

In assay [1], `CS(=O)(=O)CCNC(=O)c1ccc(N2C[C@@H]3C[C@H]2C[C@H]3OCc2c(-c3c(Cl)cccc3Cl)noc2C2CC2)cc1F` [Compound I-170, 4-[(1S,4S,5R)-5-{[5-cyclopropyl-3-(2,6-dichlorophenyl)-1,2-oxazol-4-yl]methoxy}-2-azabicyclo[2.2.1]heptan-2-yl]-2-fluoro-N-(2-methanesulfonylethyl)benzamide] returned a pEC50 of 9.4. Moreover, the Emax in assay [1] (setting [3]) is 142%. Further, in assay [2], the Emax came out at 103% and the half-maximal effective concentration (EC50) was 1.26 nM.

Consider `O=C(NCCS(=O)(=O)C1CC1)c1ccc(N2C[C@@H]3C[C@H]2C[C@H]3OCc2c(-c3c(Cl)cccc3Cl)noc2C2CC2)cc1F` [Compound I-171, N-[2-(cyclopropanesulfonyl)ethyl]-4-[(1S,4S,5R)-5-{[5-cyclopropyl-3-(2,6-dichlorophenyl)-1,2-oxazol-4-yl]methoxy}-2-azabicyclo[2.2.1]heptan-2-yl]-2-fluorobenzamide], for which the negative-log EC50 (pEC50) in assay [1] is 8.6. Besides, the Emax in assay [1] (setting [3]) was 147%. Moreover, in assay [2], the Emax amounted to 104% and the EC50 was 0.794 nM.

On to `O=C(NCCS(=O)(=O)C1CCOCC1)c1ccc(N2C[C@@H]3C[C@H]2C[C@H]3OCc2c(-c3c(Cl)cccc3Cl)noc2C2CC2)cc1F` [Compound I-172, 4-[(1S,4S,5R)-5-{[5-cyclopropyl-3-(2,6-dichlorophenyl)-1,2-oxazol-4-yl]methoxy}-2-azabicyclo[2.2.1]heptan-2-yl]-2-fluoro-N-[2-(oxane-4-sulfonyl)ethyl]benzamide], for which the pEC50 in assay [1] was found to be 8.4. In addition, the Emax in assay [1] (setting [3]) turned out to be 160%; in assay [2], 110%. Also, in assay [2], the concentration giving a half-maximal response (EC50) was 1 nM.

In the case of `Cc1cc(C(=O)NCCP(=O)(O)O)ccc1N1C[C@@H]2C[C@H]1C[C@H]2OCc1c(-c2c(Cl)cccc2Cl)noc1C1CC1` [Compound I-173, [2-({4-[(1S,4S,5R)-5-{[5-cyclopropyl-3-(2,6-dichlorophenyl)-1,2-oxazol-4-yl]methoxy}-2-azabicyclo[2.2.1]heptan-2-yl]-3-methylphenyl}formamido)ethyl]phosphonic Acid], in assay [1], the negative logarithm of the EC50 (pEC50) is on record as 9.2 and the Emax came out at 144%. Also, in assay [2], the Emax was determined as 114% and the EC50 is 100 nM.

Turning to `Cc1cc(C(=O)NCCP(=O)(OCOC(=O)C(C)(C)C)OCOC(=O)C(C)(C)C)ccc1N1C[C@@H]2C[C@H]1C[C@H]2OCc1c(-c2c(Cl)cccc2Cl)noc1C1CC1` [Compound I-174, ({[2-({4-[(1S,4S,5R)-5-{[5-cyclopropyl-3-(2,6-dichlorophenyl)-1,2-oxazol-4-yl]methoxy}-2-azabicyclo[2.2.1]heptan-2-yl]-3-methylphenyl}formamido)ethyl]({[(2,2-dimethylpropanoyl)oxy]methoxy})phosphoryl}oxy)methyl 2,2-dimethylpropanoate], the pEC50 in assay [1] was 8.8. Also, in assay [1] (setting [3]), the Emax amounted to 161%. Moreover, in assay [2], the Emax is 152% and the response was half-maximal at 251 nM (EC50).

In the case of `O=P(O)(O)CCc1ccc(N2C[C@@H]3C[C@H]2C[C@H]3OCc2c(-c3c(Cl)cccc3Cl)noc2C2CC2)cc1` [Compound I-175, (2-{4-[(1S,4S,5R)-5-{[5-cyclopropyl-3-(2,6-dichlorophenyl)-1,2-oxazol-4-yl]methoxy}-2-azabicyclo[2.2.1]heptan-2-yl]phenyl}ethyl)phosphonic Acid], in assay [1], the negative logarithm of the EC50 (pEC50) is recorded as 8.2 and the Emax was determined as 120%. Besides, in assay [2], the Emax came to 101% and a half-maximal response (EC50) required 631 nM.
